These are literature values, as cited in patent US20040185057A1, “Therapeutical vaccination” (priority 2001, published 2004).

Like-named read-outs stand apart in the source and are kept apart here.

In data set [1] the test system is HLA-A2 super type MHC class-I molecule, allele A*6802. Particulars: HLA-A2 allele A*6802; read-out: Binding capacity, IC50.

For `CC(=O)O[C@@H]1[C@H](O[C@@H]2O[C@@H](CO)[C@H](O)[C@H]2O)[C@@H](O[C@@H]2O[C@@H](C)[C@H](O[C@@H]3OC[C@@H](O)[C@H](O)[C@H]3O)[C@@H](O)[C@H]2O)[C@H](OC(=O)[C@]23CCC(C)(C)C[C@H]2C2=CC[C@@H]4[C@@]5(C)CC[C@H](O[C@@H]6O[C@H](C(=O)O)[C@@H](O)[C@H](O[C@@H]7OC[C@@H](O)[C@H](O)[C@H]7O)[C@H]6O[C@@H]6O[C@H](CO)[C@H](O)[C@H](O)[C@H]6O)[C@@](C)(C=O)[C@H]5CC[C@@]4(C)[C@]2(C)CC3)O[C@@H]1C` [Squarroside A], the immunomodulating effect result by setting is: (concentrations in the pg range) “stimulant effect”; (concentrations in the μg range) “suppressive effect”.
For the compound AIIRILQQL, the IC50 in data set [1] was 548 nM.
In the case of KMIGGIGGFI, the half-maximal inhibitory concentration (IC50) in data set [1] was 3330 nM.
For LLQLTVWGI, the concentration for half-maximal inhibition (IC50) in data set [1] is 645 nM.
On to LTFGWCFKL, for which the IC50 in data set [1] is 5.6 nM.
As to LTFGWCFKLV, the IC50 in data set [1] was 6.2 nM.
For the compound LVGPTPVNI, the IC50 in data set [1] was 67.8 nM.
Regarding MASDFNLPPV, in data set [1], the IC50 is 18.2 nM.
Consider MTNNPPIPV, for which the IC50 in data set [1] was 12.1 nM.
With RILQQLLFI, the IC50 in data set [1] was 1820 nM.
With SLLNATDIAV, the IC50 in data set [1] is 5480 nM.
